Results on 19 compounds are retold here after patent publication US7799775B2, “Pyrimidine derivatives” (ASKA Pharmaceutical Co., Ltd., priority 2004, dated 2010).

The term inhibition denotes the share of the control response that was lost under treatment.

One test has as its target T1, 5-HT3 receptor (Rattus norvegicus, UniProt P35563).
T1 construct: from tissue; host or cells: whole animal (SD male rats), serotonin-induced bradycardia
T1 sequence (P35563 24-483): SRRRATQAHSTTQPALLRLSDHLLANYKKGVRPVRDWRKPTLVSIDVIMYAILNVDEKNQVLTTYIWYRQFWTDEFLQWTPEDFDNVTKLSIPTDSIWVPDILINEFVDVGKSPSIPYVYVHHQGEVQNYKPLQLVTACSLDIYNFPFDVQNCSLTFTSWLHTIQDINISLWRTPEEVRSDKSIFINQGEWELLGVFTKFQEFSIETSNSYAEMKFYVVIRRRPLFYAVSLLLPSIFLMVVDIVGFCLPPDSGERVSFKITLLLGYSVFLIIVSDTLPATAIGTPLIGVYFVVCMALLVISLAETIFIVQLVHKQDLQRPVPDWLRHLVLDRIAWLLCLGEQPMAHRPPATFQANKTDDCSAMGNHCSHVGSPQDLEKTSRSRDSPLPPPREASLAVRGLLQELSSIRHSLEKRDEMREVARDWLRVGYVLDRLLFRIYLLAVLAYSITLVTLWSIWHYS
Description: Measurement of 5-HT3 receptor antagonistic action on rats (in vivo): inhibition of serotonin-induced bradycardia (BJ reflex). The note with it: anesthetized SD male rats, dose 1.0 mg/kg intravenous, serotonin 300 μg/kg 10 minutes later. The method, then: (4) Measurement of 5-HT3 Receptor Antagonistic Action on Rats (in Vivo)
SD male rats (weighing 270-410 g) were anesthetized by peritoneal administration of 1.25 g/kg of urethane (as dissolved in distilled water), and then catheters for measuring blood pressure and heart rate were inserted into their left carotid artery and a catheter for administration of test compound was inserted into their […]. After their blood pressure and heart rate were stabilized, 300 μg/kg of 5-hydroxytryptamine creatinine sulfate (serotonin) was rapidly intravenously administered and thereby induced transient bradycardiac reaction (BC 1) was observed. When the blood pressure and heart rate were re-stabilized after the serotonic administration, the test compounds were intravenously administered to the rats. Ten minutes thereafter, 300 μg/kg of serotonin was once again rapidly intravenously administered and thereby induced transient bradycardiac reaction (BC 2) was observed. Percent inhibition of bradycardia manifestation of each test compound, i.e., BJ reflex inhibition, can be calculated according to the following expression: […]

In the next test the target is T2, 5-HT1A receptor (Rattus norvegicus, UniProt P19327).
T2 construct: from tissue; host or cells: whole animal (SD male rats), behavioural read-out
T2 sequence (P19327 1-422): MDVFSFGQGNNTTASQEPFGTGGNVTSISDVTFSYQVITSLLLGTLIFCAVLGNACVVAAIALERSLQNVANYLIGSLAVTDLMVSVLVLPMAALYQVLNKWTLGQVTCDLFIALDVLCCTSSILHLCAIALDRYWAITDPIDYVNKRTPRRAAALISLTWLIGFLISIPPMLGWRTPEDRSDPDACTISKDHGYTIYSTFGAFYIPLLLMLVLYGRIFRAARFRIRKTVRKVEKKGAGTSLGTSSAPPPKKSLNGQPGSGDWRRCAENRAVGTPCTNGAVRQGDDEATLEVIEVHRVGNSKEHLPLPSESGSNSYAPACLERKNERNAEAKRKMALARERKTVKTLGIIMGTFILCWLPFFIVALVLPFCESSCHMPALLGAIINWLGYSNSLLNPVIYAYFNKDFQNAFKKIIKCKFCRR
Description: Measurement of 5-HT1A receptor agonistic action on rats (in vivo): lower lip retraction and flat body posture. Conditions: SD male rats, 10 mg/kg intraperitoneal; maximum of group evaluation points, 4 grades 0-3, observed 5-30 min after administration. As for the experimental part:
(3) Measurement of 5-HT1A Receptor Agonistic Action on Rats (in Vivo):
Seven weeks old SD male rats were divided into 4-5 rats per group which were accustomized to the experimental environments twice. A week after the second accustomization, the rats were put into a transparent plastic case, and 10 mg/kg of a test compound (as dissolved in 1N-hydrochloric acid and diluted with suitable amount of saline) was intraperitoneally administered thereto. Immediately before the administration and 5, 10, 20 and 30 minutes after the administration, behaviors of the rats were observed as to lower lip retraction (LLP) and flat body posture (FBP). The results were evaluated in 4 grades (0: no reaction, 1: feeble reaction, 2: medium reaction, 3: maximum reaction).

The next test addresses T3, human 5-HT1A receptor (Homo sapiens, UniProt P08908).
T3 construct: purchased Packard Bioscience; host or cells: CHO cells (membrane preparation)
T3 sequence (P08908 1-422): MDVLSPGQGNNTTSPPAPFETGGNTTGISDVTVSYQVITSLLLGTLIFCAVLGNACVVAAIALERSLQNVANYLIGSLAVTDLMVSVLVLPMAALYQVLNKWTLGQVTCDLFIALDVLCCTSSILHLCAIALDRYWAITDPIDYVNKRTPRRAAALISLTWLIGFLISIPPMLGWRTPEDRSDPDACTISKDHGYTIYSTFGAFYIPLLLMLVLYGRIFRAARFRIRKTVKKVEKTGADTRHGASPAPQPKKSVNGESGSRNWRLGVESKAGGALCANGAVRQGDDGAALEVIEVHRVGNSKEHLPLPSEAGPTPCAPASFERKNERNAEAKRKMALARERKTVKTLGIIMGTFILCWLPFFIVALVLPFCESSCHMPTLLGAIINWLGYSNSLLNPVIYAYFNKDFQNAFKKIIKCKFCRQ
Kind of test: Affinity measurement of the compounds to human 5-HT1A receptor (in vitro), [3H]8-OH-DPAT binding. Conditions: test compound 100 nmols/L, [3H]8-OH-DPAT 0.25 nmols/L, CHO cell membrane expressing human 5-HT1A receptor; for inhibition at 0.1 µM: read-out: Percent Inhibition (%) on Each Receptor's Binding at 10^−7M, 5-HT1A. Summed up: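 Membranes from CHO cells expressing human 5-HT1A were incubated 60 min at 27 °C with 0.25 nmol/L [3H]8-OH-DPAT and compound in Tris/MgSO4/EDTA/ascorbate buffer, pH 7.4. Bound radioactivity was collected on PEI-soaked GF/C filters and counted; percent inhibition was corrected for non-specific binding defined with 10 μmol/L 8-OH-DPAT.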

In a further test the target is T4, human 5-HT3 receptor (Homo sapiens, UniProt P46098).
T4 construct: purchased BIOLINKS K.K; host or cells: HEK-293 cells (membrane preparation)
T4 sequence (P46098 24-478): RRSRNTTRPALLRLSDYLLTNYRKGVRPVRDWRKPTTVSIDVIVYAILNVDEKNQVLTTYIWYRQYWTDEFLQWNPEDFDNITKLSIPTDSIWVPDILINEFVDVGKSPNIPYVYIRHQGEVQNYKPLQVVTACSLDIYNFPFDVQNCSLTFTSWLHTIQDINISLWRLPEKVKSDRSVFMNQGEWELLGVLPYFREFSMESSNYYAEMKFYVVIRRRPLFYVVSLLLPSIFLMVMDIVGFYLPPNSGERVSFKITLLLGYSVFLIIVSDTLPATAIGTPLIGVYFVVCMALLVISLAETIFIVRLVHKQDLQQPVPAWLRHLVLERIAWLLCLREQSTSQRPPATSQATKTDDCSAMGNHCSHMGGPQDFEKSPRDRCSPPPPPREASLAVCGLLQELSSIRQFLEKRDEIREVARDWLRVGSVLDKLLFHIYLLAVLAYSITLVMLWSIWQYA
Kind of test: Measurement of affinity to human 5-HT3 receptor (in vitro), [3H]BRL-43694 binding. Conditions: test compound 100 nmols/L, [3H]BRL-43694 0.5 nmols/L, HEK-293 cell membrane expressing human 5-HT3 receptor; for inhibition at 0.1 µM: read-out: Percent Inhibition (%) on Each Receptor's Binding at 10^−7M, 5-HT3. Put shortly:
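Membranes from HEK-293 cells expressing the receptor were incubated with 0.5 nmol/L radioligand and compound for 60 min at 25 °C in Tris/MgCl2/EDTA buffer, pH 7.5. Bound radioactivity was collected by filtration and counted. Percent inhibition was corrected for non-specific binding defined with 10 μmol/L tropisetron; compounds were tested at 100 nmol/L.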

Counter-ions that a name gives are not always drawn.

For the compound `c1ccc2c(N3CCNCC3)nccc2c1` [Production Example 35, 1-piperazin-1-ylisoquinoline], on 5-HT3 receptor, the “BC Inhibition (%)” value was determined as 94.6%.
On the same count and under the same terms, the same measure for `CN1CCN(c2nccc3ccc(Cl)cc23)CC1` [Production Example 50, 7-chloro-1-(4-methylpiperazin-1-yl)isoquinoline]: 86.8%; for `Oc1ccc2ccnc(N3CCNCC3)c2c1` [Production Example 95, 7-hydroxy-1-piperazin-1-ylisoquinoline hydrochloride]: 96.0%.
Turning to `Cc1ccc2ccnc(N3CCNCC3)c2c1` [Production Example 46, 7-methyl-1-piperazin-1-ylisoquinoline], at 5-HT3 receptor, the “BC Inhibition (%)” value is 94.4%.
For the compound `COc1ccc2ccnc(N3CCNCC3)c2c1` [Production Example 34, 7-methoxy-1-piperazin-1-ylisoquinoline], at 5-HT1A receptor, the “5-HT1A Receptor Agonistic Action on Rats, FBP” value is 2.8 and the “5-HT1A Receptor Agonistic Action on Rats, LLR” value is given as 3.0. The “BC Inhibition (%)” value at 5-HT3 receptor is 92.0%.
`COc1ccc2ccnc(N3CCN4CCCCC4C3)c2c1` (centres unmarked) [Production Example 81, 7-methoxy-1-octahydropyrido[1,2-a]pyrazin-2-ylisoquinoline]: the inhibition at 0.1 µM was 95.8% on human 5-HT1A receptor and 74.4% at human 5-HT3 receptor.
For `c1cc2ccoc2c(N2CCN3CCCCC3C2)n1` (centres unmarked) [Production Example 118, 7-octahydropyrido[1,2-a]pyrazin-2-ylfuro[2,3-c]pyridine], in that order: 76% and 84.9%.
With `c1cnc2c(N3CCN4CCC[C@H]4C3)nccc2c1` [Production Example 74, 8-((8aS)-octahydropyrrolo[1,2-a]pyrazin-2-yl)-1,7-naphthyridine], the inhibition at 0.1 µM turned out to be 94.6% at human 5-HT1A receptor and 98.9% on human 5-HT3 receptor.
For `Cc1sc2nc(CCCCN3CCN(c4ccc5ccccc5n4)CC3)[nH]c(=O)c2c1C` [Example 3-1, 5,6-dimethyl-2-[4-(4-quinolin-2-ylpiperazin-1-yl)butyl]-3H-thieno[2,3-d]pyrimidin-4-one], in that order: 77% and 96.9%.
For `c1cc2ccsc2c(N2CCN3CCCCC3C2)n1` (centres unmarked) [Production Example 120, 7-octahydropyrido[1,2-a]pyrazin-2-ylthieno[2,3-c]pyridine] the same measures were 81% and 99.4%.
As to `Nn1c(NCCCN2CCN(c3ccc4ccccc4n3)CC2)nc2c(c1=O)CCCC2` [Example 6-2, 3-amino-2-[3-(4-quinolin-2-ylpiperazin-1-yl)propylamino]-5,6,7,8-tetrahydro-3H-quinazolin-4-one], the inhibition at 0.1 µM was 92.4% at human 5-HT1A receptor and 39.3% at human 5-HT3 receptor.
For `Cc1sc2nc(SCCCN3CCN(c4nc5ccccc5n5cccc45)CC3)n(N)c(=O)c2c1C` [Example 1-5, 3-amino-5,6-dimethyl-2-[3-(4-pyrrolo[1,2-a]quinoxalin-4-ylpiperazin-1-yl)propylthio]-3H-thieno[2,3-d]pyrimidin-4-one], in that order: 85% and 82.6%.
For `Fc1ccc2ccnc(N3CCNCC3)c2c1` [Production Example 63, 7-fluoro-1-piperazin-1-ylisoquinoline], in that order: 80.4% and 96.8%.
For `Cn1c(CCCCN2CCN(c3ccc4ccccc4n3)CC2)nc2c(cnn2C)c1=O` [Example 7-19, 1,5-dimethyl-6-[4-(4-quinolin-2-ylpiperazin-1-yl)butyl]-1,5-dihydropyrazolo[3,4-d]pyrimidin-4-one] the same measures were 85% and 7.4%.
For `NS(=O)(=O)Oc1ccc2ccnc(N3CCN4CCC[C@H]4C3)c2c1` [Production Example 87], the results for the inhibition at 0.1 µM at human 5-HT1A receptor and on human 5-HT3 receptor were 96.4% and 96.9%, respectively.
For `Cn1c(SCCCN2CCN(c3ccc4ccccc4n3)CC2)nc2ccccc2c1=O` [Example 7-28] the same measures were 74.7% and 87.3%.
Turning to `COc1cc(N2CCN(CCCCc3nc4ccccc4c(=O)n3N)CC2)nc2ccccc12` [Example 4-22, 3-amino-2-[4-(4-methoxyquinolin-2-yl)piperazin-1-yl]butyl-3H-quinazolin-4-one], the “Percent Inhibition (%) on Each Receptor's Binding at 10^−7M, 5-HT1A” value on human 5-HT1A receptor was determined as 58.2%. In addition, at human 5-HT3 receptor, the “Percent Inhibition (%) on Each Receptor's Binding at 10^−7M, 5-HT3” value stood at 93.9%.
In the case of `COc1ccc2ccnc(N3CCN(Cc4ccc5c(c4)OCO5)CC3)c2c1` [Production Example 71, 1-(4-benzo[1,3]dioxol-5-ylmethylpiperazin-1-yl)-7-methoxyisoquinoline], the figures for the inhibition at 0.1 µM on human 5-HT1A receptor and at human 5-HT3 receptor were 94.8% and 42.2%, respectively.
For `CSc1ccc2ccnc(N3CCN4CCC[C@H]4C3)c2c1` [Production Example 82] the same measures were 99.3% and 90.3%.
